One series relates to Sphaerotheca fuliginea. Briefly: Test of examining control effect on Sphaerotheca fuliginea (potted cucumber plants). Format: in vivo. The note with it: Podosphaera fuliginea, 336 h; 10% wettable powder adjusted to 125 ppm, 15 ml/pot sprayed on potted cucumber plants one day before spray inoculation; assessed after 14 days in greenhouse; read-out: Determination of control effect (preventive value) on Sphaerotheca fuliginea. The essentials:
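Cucumber plants (Sagamihanjiro, 2nd leaf stage) sprayed with 125 ppm compound (from 10% wettable powder), inoculated one day later with S. fuliginea conidia (1.0×10^5 cells/ml); lesion area scored after 14 days in greenhouse. Preventive value vs untreated; ≥60% high, <60% low control.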

For series [1], the system named is Pseudoperonospora cubensis. Put plainly: Test of examining control effect on Pseudoperonospora cubensis (potted cucumber plants). It counts as in vivo. The settings on record: 96 h, 10% wettable powder adjusted to 125 ppm, 15 ml/pot sprayed on potted cucumber plants one day before spray inoculation, assessed after 1 day wet chamber and 3 days greenhouse, read-out: Determination of control effect (preventive value) on Pseudoperonospora cubensis. Put shortly: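 Cucumber plants (Sagamihanjiro, 2.5-leaf stage) sprayed with 125 ppm compound solution from 10% wettable powder, 15 ml/pot. One day later, spray-inoculated with P. cubensis conidia (1.0×10^4 cells/ml), kept 1 day at 21° C wet, then 3 days in greenhouse. Preventive value derived from lesion area relative to untreated plants.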

The next series has as its system Phytophthora infestans. Put plainly: whole plant or invertebrate. The note with it: in Solanum lycopersicum, 96 h, read-out: Determination of control effect (preventive value). Format: in vivo.

A word on the melting point: it is the temperature, or range, at which the solid turns liquid. `FC(F)(F)c1ccccc1C#CCCNc1ncnc2cc(Cl)ccc12` [compound 308] had a melting point of 153 to 154 °C. Further, in the series with Sphaerotheca fuliginea, the pest or weed control at 125 µg/mL was 60 to 100%. For the same compound, the pest or weed control at 125 µg/mL in series [1] was 60 to 100%. For the same compound, the pest or weed control at 125 ppm in the series with Phytophthora infestans fell in the range of 0 to 60%.
For `Fc1cc(Cl)ccc1C#CCCNc1ncnc2ccccc12` [compound 164], the melting point fell in the range of 198 to 199 °C. Also, in the series on Sphaerotheca fuliginea, the pest or weed control at 125 µg/mL was 60 to 100%. In addition, the pest or weed control at 125 µg/mL in series [1] fell in the range of 60 to 100%. Further, the pest or weed control at 125 ppm in the series on Phytophthora infestans lay within 60 to 100%.
Compound `FC(F)(F)c1cccc(Oc2nc(C#CCCNc3ncnc4ccccc34)cs2)c1` [compound 219] came in with a melting point of 106 to 108 °C. The pest or weed control at 125 µg/mL with Sphaerotheca fuliginea was 60 to 100%. In addition, the pest or weed control at 125 µg/mL in series [1] was 60 to 100%. Further, the pest or weed control at 125 ppm in the series with Phytophthora infestans was 0 to 60%.
For the compound `OCc1ccc(C#CCCNc2ncnc3ccccc23)cn1` [compound 202], the melting point is 183 to 185 °C. Besides, in the series on Sphaerotheca fuliginea, the pest or weed control at 125 µg/mL is 0 to 60%. Besides, the pest or weed control at 125 µg/mL in series [1] was 60 to 100%. In addition, the pest or weed control at 125 ppm with Phytophthora infestans was 0 to 60%.
In the case of `N#Cc1c(F)cccc1C#CCCNc1ncnc2ccccc12` [compound 165], the melting point lay within 163 to 164 °C. For the same compound, the pest or weed control at 125 µg/mL in the series with Sphaerotheca fuliginea was in the range of 60 to 100%. For the same compound, the pest or weed control at 125 µg/mL in series [1] lay in the range of 60 to 100%. In the series on Phytophthora infestans, the pest or weed control at 125 ppm was 0 to 60%.
On to `Fc1ccc(C#CCCNc2ncnc3ccccc23)cc1F` [compound 166], for which the melting point fell in the range of 161 to 162 °C. The pest or weed control at 125 µg/mL in the series on Sphaerotheca fuliginea lay in the range of 60 to 100%. Further, the pest or weed control at 125 µg/mL in series [1] fell in the range of 60 to 100%. Besides, in the series on Phytophthora infestans, the pest or weed control at 125 ppm is 60 to 100%.
Compound `Clc1ccc(Cl)c(C#CCCNc2ncnc3ccccc23)c1` [compound 173] returned a melting point of 176 to 177 °C. Besides, in the series with Sphaerotheca fuliginea, the pest or weed control at 125 µg/mL was 60 to 100%. Moreover, the pest or weed control at 125 µg/mL in series [1] lay within 60 to 100%. In the series with Phytophthora infestans, the pest or weed control at 125 ppm was in the range of 0 to 60%.
On to `FC(F)(F)c1ccc(Oc2nc(C#CCCNc3ncnc4ccccc34)cs2)cc1` [compound 220], for which the melting point fell in the range of 137 to 139 °C. Besides, in the series with Sphaerotheca fuliginea, the pest or weed control at 125 µg/mL is 60 to 100%. The pest or weed control at 125 µg/mL in series [1] was in the range of 0 to 60%. Also, the pest or weed control at 125 ppm in the series with Phytophthora infestans lay in the range of 0 to 60%.
Regarding `Clc1cccc(Cl)c1C#CCCNc1ncnc2ccccc12` [compound 174], the melting point was 153 to 155 °C. Further, in the series with Sphaerotheca fuliginea, the pest or weed control at 125 µg/mL was 60 to 100%. Further, the pest or weed control at 125 µg/mL in series [1] was 60 to 100%. In addition, the pest or weed control at 125 ppm with Phytophthora infestans fell in the range of 60 to 100%.
The compound `COc1cccc(Oc2nc(C#CCCNc3ncnc4ccccc34)cs2)c1` [compound 216] yielded a melting point of 77 to 79 °C. In addition, the pest or weed control at 125 µg/mL in the series with Sphaerotheca fuliginea was 60 to 100%. Moreover, the pest or weed control at 125 µg/mL in series [1] was in the range of 60 to 100%. For the same compound, the pest or weed control at 125 ppm with Phytophthora infestans is 60 to 100%.
For the compound `FC(F)(F)c1ccccc1C#CCC(Nc1ncnc2ccccc12)c1ccccc1` (stereo not drawn) [compound 302], the melting point was in the range of 150 to 152 °C. In addition, the pest or weed control at 125 µg/mL with Sphaerotheca fuliginea lay within 0 to 60%. For the same compound, the pest or weed control at 125 µg/mL in series [1] lay within 0 to 60%. In addition, in the series on Phytophthora infestans, the pest or weed control at 125 ppm was in the range of 0 to 60%.
`COc1ccc(Oc2nc(C#CCCNc3ncnc4ccccc34)cs2)cc1` [compound 217] displayed a melting point of 150 to 152 °C. The pest or weed control at 125 µg/mL in the series with Sphaerotheca fuliginea was 60 to 100%. The pest or weed control at 125 µg/mL in series [1] was in the range of 60 to 100%. Also, in the series on Phytophthora infestans, the pest or weed control at 125 ppm fell in the range of 0 to 60%.
Turning to `C(#Cc1csc(-c2ccco2)n1)CCNc1ncnc2sccc12` [compound 77], the melting point lay in the range of 53 to 55 °C. For the same compound, in the series with Sphaerotheca fuliginea, the pest or weed control at 125 µg/mL was in the range of 0 to 60%. Moreover, the pest or weed control at 125 ppm with Phytophthora infestans lay in the range of 0 to 60%.
`Fc1cc(C#CCCNc2ncnc3sccc23)cc(F)c1F` [compound 43] showed a melting point of 158 to 159 °C. Moreover, the pest or weed control at 125 µg/mL in series [1] was 60 to 100%. In the series with Phytophthora infestans, the pest or weed control at 125 ppm is 60 to 100%.
For the compound `O=[N+]([O-])c1cccc(C#CCCNc2ncnc3sccc23)c1` [compound 39], the melting point is 171 to 172 °C. For the same compound, the pest or weed control at 125 µg/mL in series [1] lay within 60 to 100%. Further, the pest or weed control at 125 ppm with Phytophthora infestans was in the range of 60 to 100%.

The values are drawn from US8586505B2 (SDS Biotech K. K., priority 2009, dated 2013).
